Literature values, collected in US20210113461A1, “Methods of Treating Fungal Infections” (CIPLA TECHNOLOGIES LLC, priority 2018, published 2021).
Read-outs that look alike come from different tables or passages of the source.

Key:
[1] = oral solution

In the case of `CCC(C)n1ncn(-c2ccc(N3CCN(c4ccc(OCC5COC(Cn6cncn6)(c6ccc(Cl)cc6Cl)O5)cc4)CC3)cc2)c1=O` (centres unmarked) [Itraconazole, itraconazole], the “bound by plasma protein” value (plasma protein; capsules) is given as 99.6%, the “bound by plasma protein” value (plasma protein; oral solution) is given as 99.8% and the “half-life at steady state” value [1] is given as 39.7 ± 13 h. The “steady-state AUC0-24h under fasted conditions as % of exposure under fed conditions” value [1] was 131±30%, the “mean AUC0-24h at steady-state” value ([1]; 200 mg daily dose, fasted) was 29,271±10,285 ng·h/mL and the “mean Cmax at steady-state” value ([1]; 200 mg daily dose, fasted) was 1,963±601 ng/mL. The “mean tmax at steady-state” value ([1]; 200 mg daily dose, fasted) was 2.5 ± 0.8 h and the “increase of bioavailability under fasted conditions” value ([1]; healthy volunteers) was 30%.
